US12479892B2, “Immunogenic protein against gonococcal infection” (priority 2019, dated 2025)
Where two headings read alike, the source gives them in different places.

Columns and labels:
NHBANg = NHBANg (Neisseria gonorrhoeae, UniProt B4RQT3); experiment: SPR analysis of glycan binding; details: for SPR binding, in words: glycans 100 μM to 1 nM
Method: Surface plasmon resonance (SPR) was performed using a BIAcore T200 instrument with recombinant NHBANg (100 μg/ml) immobilized on flow cells 2-4 by amine coupling on series S CMS sensor chips (GE Healthcare) as described previously. Flow cell 1 was used as the reference cell and immobilized with ethanolamine only. Single cycle kinetics was used to calculate the affinity (KD) of interactions with glycans run in 1:5 dilution series at concentrations between 100 μM to 1 nM. Results were analysed using BIAcore T200 software 2.0.2.

NHBANm = NHBANm (Neisseria meningitidis serogroup B, UniProt Q7DD37); details: cited from earlier work
[1] = test system: N. gonorrhoeae 1291 ΔNHBA; experiment: Normal human serum survival assay; type: cell-based, Neisseria gonorrhoeae; details: ΔNHBA mutant; 10% normal human serum, 60 minutes; 6 μM heparin pre-incubation
Method: Resistance of N. gonorrhoeae to serum-mediated killing was tested as described previously with ˜10^4 CFU incubated in 10% (v/v) for 60 minutes at 37° C. and subsequently plated on GC agar. Bacteria were pre-incubated with 6 μM heparin 30 minutes where indicated. Bacterial survival was calculated as percent CFU (average from three replicate wells) relative to no treatment control.

[2] = test system: NHBA-heparin interactions; experiment: SPR competition assay, blocking of NHBA-heparin interactions by sera; type: binding, Neisseria gonorrhoeae; details: 1:200 dilution of serum; heparin max 50 μM
Method: SPR competition assays were performed using a Pall Pioneer FE. Competition assays were performed as previously described using NextStep injections in the OneStep assay builder. Pre- and post-immune NHBA mouse sera were used as the first injection (A), and heparin as the second injection (B). Binding of heparin (maximum OneStep concentration of 50 μM) to NHBA was compared with and without serum, and with 1:200 dilution of pre- or post-immune serum. Data was collected using the Pioneer Software package and analyzed using Qdat analysis software. The percentage blocking was calculated based on the relative RMax of the heparin injection without serum (Injection A=buffer; B=heparin) versus the serum subtracted (Injection A=pre/postimmune serum; B=buffer) binding of heparin in the presence of serum ((Injection A=pre/postimmune serum; B=heparin).

[3] = test system: N. gonorrhoeae adherence to cervical (tCX) epithelial cells; experiment: Blocking of gonococcal adherence by sera, cervical epithelial cells; type: cell-based, Neisseria gonorrhoeae
Method: (§1) Gonococcal adherence assays were performed as described previously with following modifications. Briefly, tCX and tUEC cell monolayers were infected (10 min at 37° C.) with approximately 1×10^5 CFU that was initially pre-incubated with serial dilutions of heat-inactivated mouse sera for 30 min at room temperature. Following the infection, cell monolayers were washed three times with warm HBSS to remove non-adherent bacteria and well contents plated onto GC agar. Results were calculated as the mean CFU from three replicate wells and presented as percentage of adherent bacteria relative to no antibody control. Statistical analysis performed with ANOVA and two-tailed Student's t-test. Each experiment was performed three times.

[4] = test system: N. gonorrhoeae adherence to urethral (tUEC) epithelial cells; experiment: Blocking of gonococcal adherence by sera, urethral epithelial cells; type: cell-based, Neisseria gonorrhoeae
Method: as §1

[5] = single cycle kinetics, immobilised NHBANg, read-out: KD

## C[C@@H]1O[C@@H](O[C@@H]2[C@@H](O)[C@@H](O)[C@@H](CO)O[C@H]2O)[C@@H](O)[C@H](O)[C@@H]1O [H-disaccharide]
NHBANg
  SPR binding, in words: No concentration dependent binding

## CC(=O)N[C@H]1[C@H](O[C@H]2[C@@H](O)[C@@H](CO)O[C@@H](O[C@H]3[C@H](O)[C@@H](O)C(O)O[C@@H]3CO)[C@@H]2O)O[C@H](CO)[C@@H](O[C@@H]2O[C@H](CO)[C@H](O)[C@H](O)[C@H]2O)[C@@H]1O (stereo partly drawn) [LNnT, lacto N-neotetraose]
NHBANg
  Kd: 4890 nM

## CC(=O)N[C@H]1[C@H](O[C@H]2[C@@H](O)[C@@H](CO)O[C@@H](O[C@H]3[C@H](O)[C@@H](O)C(O)O[C@@H]3CO)[C@@H]2O)O[C@H](CO[C@]2(C(=O)O)C[C@H](O)[C@@H](NC(C)=O)[C@H]([C@H](O)[C@H](O)CO)O2)[C@@H](O)[C@@H]1O[C@@H]1O[C@H](CO)[C@H](O)[C@H](O)[C@H]1O (stereo partly drawn) [LSTb]
NHBANg
  Kd: 2260 nM

## CC(=O)N[C@H]1[C@H](O[C@H]2[C@@H](O)[C@@H](CO)O[C@@H](O[C@H]3[C@H](O)[C@@H](O)C(O)O[C@@H]3CO)[C@@H]2O)O[C@H](CO)[C@@H](O[C@@H]2O[C@H](CO[C@]3(C(=O)O)C[C@H](O)[C@@H](NC(C)=O)[C@H]([C@H](O)[C@H](O)CO)O3)[C@H](O)[C@H](O)[C@H]2O)[C@@H]1O (stereo partly drawn) [LSTc]
NHBANg
  Kd: 240 nM

## CC(=O)N[C@H]1C(O)O[C@H](CO)[C@@H](O[C@@H]2O[C@H](CO)[C@H](O)[C@H](O)[C@H]2O)[C@@H]1O[C@@H]1O[C@@H](C)[C@@H](O)[C@@H](O)[C@@H]1O (stereo partly drawn) [Lewis X]
NHBANg; ratio of KD
  fold greater affinity than for sialyl Lewis X: 5 fold
NHBANg; [5]
  Kd: 680 nM

## CC(=O)N[C@H]1[C@H]([C@H](O)[C@H](O)CO)O[C@@](O[C@H]2[C@@H](O)[C@@H](CO)O[C@@H](O[C@H]3[C@H](O[C@@H]4O[C@@H](C)[C@@H](O)[C@@H](O)[C@@H]4O)[C@@H](NC(C)=O)C(O)O[C@@H]3CO)[C@@H]2O)(C(=O)O)C[C@@H]1O (stereo partly drawn) [sialyl Lewis X]
NHBANg; single cycle kinetics, immobilised NHBANg
  Kd: 3650 nM

## O=C[C@H](O)[C@@H](O)[C@H](O)[C@H](O)COP(=O)(O)O [β-Glc6P, glucose 6-phosphate]
NHBANm
  Kd: 56 nM

## chondroitin 4-sulfate [chondroitin sulfate A]
NHBANg
  SPR binding, in words: no concentration dependent binding

## chondroitin 6-sulfate [chondroitin sulfate C]
NHBANg
  SPR binding, in words: bound

## chondroitin sulfate
NHBANg; [5]
  Kd: 73 nM

## dermatan sulfate [chondroitin sulfate B]
NHBANg
  SPR binding, in words: no concentration dependent binding

## heparan sulfate
NHBANg; [5]
  Kd: 2790 nM

## heparin
NHBANg; [5]
  Kd: 4.4 nM
[1]
  survival in human serum after pre-treatment, in words: increased survival

## hyaluronan
NHBANg
  SPR binding, in words: No concentration dependent binding

B1: NHBA-c: C-terminal fragment of NHBA of N. gonorrhoeae 1291 (SEQ ID NO:2, 183 amino acids); antisera to it, adjuvant not stated at place (protein)
chain: SLPAEIPLIPVNQADTLIVDGEAVSLTGHSGNIFAPEGNYRYLTYGAEKLPGGSYALRVQGEPAKGEMLAGTAVYNGEVLHFHMENGRPYPSGGRFAAKVDFGSKSVDGIIDSSDDLHMGTQKFKAAIDGNGFKGTWTENGGGDVSGRFYGPAGEEVAGKYSYRPTDAEKGGFGVFAGKKDRD
modifications: Neisseria gonorrhoeae (strain 1291)
[2]
  reduction of heparin binding to NHBA: 11%
[3]; cervical epithelial cells, all tested concentrations, relative to untreated control
  adherence of serum-treated gonococci, in words: significantly reduced adherence
[3]; tCX cells, 1:20 dilution of sera, relative to no antibody control
  decrease of gonococcal adherence: 8 fold
[4]; tUEC cells, 1:20 dilution of sera, relative to no antibody control
  decrease of gonococcal adherence: 5 fold
[4]; urethral epithelial cells, all tested concentrations, relative to untreated control
  adherence of serum-treated gonococci, in words: significantly reduced adherence
